The values below come from patent publication US20240368668A1, “SUBSTRATES AND BIOMARKERS OF ADAMTS7” (The Broad Institute, Inc., priority 2021, published 2024).

Square brackets hold non-standard residues; d marks the D form. Ends that are not written are not given here.

The first experiment concerns mouse ADAMTS7. The experiment in a line: TMT10 TAILS N-terminomics, HUVEC experiment (process replicates, trypsin/AspN digest). Format: cell-based, human. The settings on record: HUVEC TAILS HC; log fold change of N-terminal peptide, Ad-mADAMTS7 WT over EQ. In short, it runs like this:
(§1)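 Full-length mouse ADAMTS7 (WT or E373Q mutant, C-terminal 3xFLAG) or luciferase was transduced via adenovirus, 50 MOI, into HCA-SMC (SMC1, SMC2) or HUVEC. SMC1: pooled media, technical triplicates 400 ug; SMC2: process triplicates 300 ug; HUVEC: process triplicates 200 ug, bFGF2 10 ng/ml.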
Substance “ECM1_108 (QEAVPLQK; listed as Homo sapiens)” had a logFC.mWT.over.mEQ of 2.12.
The same measure, in the same setting: the same measure for “EFEMP1_125_ (VAGPEMQTGR; listed as Homo sapiens)”: 2.45; for “ERAP2_718 (ISENLKR; listed as Homo sapiens)”: 4.41; for “EWSR1_87 (YSQPVQGYGTGAY; listed as Homo sapiens)”: 1.15.
As for “FN1_34 ([code q]QMVQPQSPVAVSQSKPGCY; not fully specified (residue 3); listed as Homo sapiens)”, the logFC.mWT.over.mEQ stood at 1.43.
Still for that read-out and setting: to “FN1_35 ([code q]MVQPQSPVAVSQSKPGCY; not fully specified (residue 2); listed as Homo sapiens)” belongs 2.58.
Still for that read-out and setting: the same measure for “FN1_293 (VYQPQPHPQPPPYGHCVT; listed as Homo sapiens)”: 1.24; for “FN1_607 (SSSGPVEVFIT; listed as Homo sapiens)”: 2.71; for “FN1_1144 (TPGVEYVYTIQVLR; listed as Homo sapiens)”: 1.62.
Substance “FN1_1780 (LQGLRPGSEYTVSVVALH; listed as Homo sapiens)” displayed a logFC.mWT.over.mEQ of 2.27.
The same measure, in the same setting: the same measure for “FN1_1805 (LIGTQSTAIPAPT; listed as Homo sapiens)”: 1.42.

The same experiment, now with this note: HUVEC experiment; log fold change, mouse ADAMTS7 WT over EQ.
For the substance “FN1_607 (SSSGPVEVFIT; listed as Homo sapiens)”, the “HUVEC logFC.mWT.over.mEQ” value came to 2.04.

A further experiment relates to mouse ADAMTS7. Briefly: TMT10 TAILS N-terminomics, SMC2 experiment (process replicates, trypsin/AspN digest). The settings on record: SMC2_TAILS HC; log fold change of N-terminal peptide, Ad-mADAMTS7 WT over EQ. Format: cell-based. In short, it runs like this: as §1
“VCAN_3367 (FKNSSSAK; listed as Homo sapiens)”: the logFC.mWT.over.mEQ is given as 1.51.
Same read-out and setting: to “VIM_276 (YESVAAKNLQ; listed as Homo sapiens)” belongs 0.83; to “VIM_322 (QVQSLTCEV; listed as Homo sapiens)”, 1.11.
Substance “ZSCAN4_25 (FQQSQGPAVQR; listed as Homo sapiens)” registered a logFC.mWT.over.mEQ of 2.89.

Still in this experiment, the particulars now being: SMC2_TAILS HC; log fold change, mWT over mEQ.
For “ACTG1_105 (LTEAPLNPKANR; listed as Homo sapiens)”, the logFC.mWT.over.mEQ was 2.11.
Substance “ACTN4_5 (HAANQSYQYGPSSAGNGAGGGGSMG; listed as Homo sapiens)” returned a logFC.mWT.over.mEQ of 2.64.
Take “ADAM9_74 (GKEHIIHLER; listed as Homo sapiens)”: the logFC.mWT.over.mEQ was 4.31.
Regarding “ADAM10_86 (FKVETSNKVL; listed as Homo sapiens)”, the logFC.mWT.over.mEQ is 2.74.
The same measure, in the same setting: the same measure for “ADNP2_375 (SQPVGPVNK; listed as Homo sapiens)”: 0.75; for “AMER2_654 (LAGTTIRATACH; listed as Homo sapiens)”: 0.90; for “APLP2_452 (LVETHLAR; listed as Homo sapiens)”: 2.59.
Still for that read-out and setting: to “APOA1_86 (EQLGPVTQEFW; listed as Homo sapiens)” belongs 1.88; to “BMPER_43 (LTGSVAKCENEG; listed as Homo sapiens)”, 2.43.
Turning to “CALU_176 (FTAFLHPEEY; listed as Homo sapiens)”, the logFC.mWT.over.mEQ is listed as 2.38.
As for “CAP1_300 (FSAPKPQTSPSPKR; listed as Homo sapiens)”, the logFC.mWT.over.mEQ was found to be 2.81.
Still for that read-out and setting: to “CCL2_28 (INAPVTCCYNFTNR; listed as Homo sapiens)” belongs 1.46; to “CEP192_728 (DKSTAGR; listed as Homo sapiens)”, 2.95.
In turn, “CTSB_109 (WAFGAVEAIS; listed as Homo sapiens)” gave a logFC.mWT.over.mEQ of 1.73.
Same read-out and setting: to “DBN1_434 (APVEPATA; listed as Homo sapiens)” belongs 1.57; to “DIS3L_75 (FPELKGIIFMQTACQAVQHQR; listed as Homo sapiens)”, 1.78.
In turn, “ECM1_38 (FQEVGYAAPPSPPLSR; listed as Homo sapiens)” came in with a logFC.mWT.over.mEQ of 1.57.
Same read-out and setting: the same measure for “ECM1_44 (AAPPSPPLSR; listed as Homo sapiens)”: 2.54; for “ECM1_108 (QEAVPLQK; listed as Homo sapiens)”: 3.34.
“EEF1G_23 (QYSGAQVR; listed as Homo sapiens)” yielded a logFC.mWT.over.mEQ of 3.30.
The same measure, in the same setting: to “EIF4B_426 (QTGTSTTSSR; listed as Homo sapiens)” belongs 5.12; to “EMSY_943 (QTVVQVLAVK; listed as Homo sapiens)”, 0.92.
Same read-out and setting: to “FBLN2_665 (FSQVASNTIPLPLPQPNTCK; listed as Homo sapiens)” belongs 1.89; to “FLNA_689 (VNKPAEFTV; listed as Homo sapiens)”, 6.12.
The substance “FLNC_2649 (FVGQKNSFTV; listed as Homo sapiens)” displayed a logFC.mWT.over.mEQ of 3.97.
Same read-out and setting: to “FN1_35 ([code q]MVQPQSPVAVSQSKPGCY; not fully specified (residue 2); listed as Homo sapiens)” belongs 2.08; to “FN1_99 (DKYTGNTYR; listed as Homo sapiens)”, 1.43; to “FN1_607 (SSSGPVEVFIT; listed as Homo sapiens)”, 0.63.
Still for that read-out and setting: to “FN1_1693 (LQPTVEYVVSVYAQNPSG; listed as Homo sapiens)” belongs 2.05; to “FN1_1780 (LQGLRPGSEYTVSVVALH; listed as Homo sapiens)”, 2.01.
The same measure, in the same setting: to “FN1_1805 (LIGTQSTAIPAPT; listed as Homo sapiens)” belongs 1.73; to “FOXG1_235 (LNKCFVKVPRHY; listed as Homo sapiens)”, 3.34; to “FSTL_1290 (LQKHQETA; listed as Homo sapiens)”, 2.86.
For “HEG1_51 (GLELQLER; listed as Homo sapiens)”, the logFC.mWT.over.mEQ is recorded as 0.65.
The same measure, in the same setting: the same measure for “HEG1_224 (FQTKSGTAS; listed as Homo sapiens)”: 3.25.
On the same count and under the same terms, the same measure for “KCND1_436 (RLAKSGTTNAFLQYKQNGGLE; listed as Homo sapiens)”: 1.74; for “KRT28_2 (SLQFSNGSR; listed as Homo sapiens)”: 2.22.
“LASP1_182 (SYGGYKEPAAPVSIQR; listed as Homo sapiens)” yielded a logFC.mWT.over.mEQ of 1.01.
On the same count and under the same terms, the same measure for “LOXL1_157 (SVSASAFASTYR; listed as Homo sapiens)”: 2.90; for “LOX_60 (LGSQYQPQR; listed as Homo sapiens)”: 1.59.

The same experiment, now with this note: log fold change, ADAMTS7 WT over EQ.
For “QSOX1_558 (VAAAPELAMGALELESR; listed as Homo sapiens)”, the logFC.mWT.over.mEQ is 1.13.
“SDC4_106 (LEENEVIPKR; listed as Homo sapiens)”: the logFC.mWT.over.mEQ is listed as 1.67.
On to “SERPINH1_27 (AAAPGTAEKLSPKAATLAER; listed as Homo sapiens)”, for which the logFC.mWT.over.mEQ is 3.30.
Same read-out and setting: to “SMOC1_35 (LISDRDPQCNLHCSR; listed as Homo sapiens)” belongs 1.62.
On the same count and under the same terms, the same measure for “SPOCK1_126 (HWVGPSNLVK; listed as Homo sapiens)”: 0.93; for “SRGN_50 (LEEKGPMFELLPGESNKIPR; listed as Homo sapiens)”: 3.28.
The substance “SRGN_51 (EEKGPMFELLPGESNKIPR; listed as Homo sapiens)” came in with a logFC.mWT.over.mEQ of 1.79.
Substance “SRGN_60 (LPGESNKIPR; listed as Homo sapiens)” registered a logFC.mWT.over.mEQ of 3.25.
The same measure, in the same setting: to “SRGN_62 (GESNKIPR; listed as Homo sapiens)” belongs 3.26.
Same read-out and setting: to “STC1_37 (QNSAEVVR; listed as Homo sapiens)” belongs 4.78; to “STC2_239 (HGEAGHHLPEPSSR; listed as Homo sapiens)”, 1.70.
In turn, “STC2_244 (HHLPEPSSR; listed as Homo sapiens)” returned a logFC.mWT.over.mEQ of 1.35.
The substance “TGFBI_24 (GPAKSPYQLVLQHSR; listed as Homo sapiens)” had a logFC.mWT.over.mEQ of 0.71.
On the same count and under the same terms, to “TGFBI_43 ([code q]HGPNVCAVQKVIGTNR; not fully specified; listed as Homo sapiens)” belongs 0.75; to “TGFBI_50 (AVQKVIGTNR; listed as Homo sapiens)”, 0.64; to “TGFBI_208 (GIVTVNCAR; listed as Homo sapiens)”, 0.59.
On to “TGFBI_276 (TLLAPT[code n]EAFEKIPSETLNR; not fully specified; listed as Homo sapiens)”, for which the logFC.mWT.over.mEQ came to 0.66.
On the same count and under the same terms, to “TGFBI_497 (VLTPPMGTVMDVLKGDNR; not fully specified (residue 6); listed as Homo sapiens)” belongs 0.61; to “TGFBI_524 (SAGLTETLNR; listed as Homo sapiens)”, 0.66.
For the substance “TGFBI_534 (EGVYTVFAPTNEAFR; listed as Homo sapiens)”, the logFC.mWT.over.mEQ was found to be 0.82.
With “TG_1017 (GASALLR; listed as Homo sapiens)”, the logFC.mWT.over.mEQ was 3.05.
On the same count and under the same terms, the same measure for “THBS1_972 (QNDPNWVVR; listed as Homo sapiens)”: 3.59; for “TLN1_1501 (HTSALCNSCR; listed as Homo sapiens)”: 1.48; for “TMEM132A_52 (LLDAPEHFR; listed as Homo sapiens)”: 2.95.
The substance “VASN_138 (HIQPGAFDTLDR; listed as Homo sapiens)” came in with a logFC.mWT.over.mEQ of 1.45.
Still for that read-out and setting: to “VASP_229 (AIAGAKLR; listed as Homo sapiens)” belongs 4.56.
On the same count and under the same terms, to “VIM_433 (LVDTHSKR; listed as Homo sapiens)” belongs 2.79.
